Laboratory results as given in publication PMC2858402 (Chemical biology & drug design, 2009).

Each compound was assayed against Full-length DnaK (FL, flDnaK) (Escherichia coli, UniProt P0A6Y8) (assay: isothermal titration calorimetry).
Assay type: binding

Chain of Full-length DnaK (FL, flDnaK) (P0A6Y8 2-638): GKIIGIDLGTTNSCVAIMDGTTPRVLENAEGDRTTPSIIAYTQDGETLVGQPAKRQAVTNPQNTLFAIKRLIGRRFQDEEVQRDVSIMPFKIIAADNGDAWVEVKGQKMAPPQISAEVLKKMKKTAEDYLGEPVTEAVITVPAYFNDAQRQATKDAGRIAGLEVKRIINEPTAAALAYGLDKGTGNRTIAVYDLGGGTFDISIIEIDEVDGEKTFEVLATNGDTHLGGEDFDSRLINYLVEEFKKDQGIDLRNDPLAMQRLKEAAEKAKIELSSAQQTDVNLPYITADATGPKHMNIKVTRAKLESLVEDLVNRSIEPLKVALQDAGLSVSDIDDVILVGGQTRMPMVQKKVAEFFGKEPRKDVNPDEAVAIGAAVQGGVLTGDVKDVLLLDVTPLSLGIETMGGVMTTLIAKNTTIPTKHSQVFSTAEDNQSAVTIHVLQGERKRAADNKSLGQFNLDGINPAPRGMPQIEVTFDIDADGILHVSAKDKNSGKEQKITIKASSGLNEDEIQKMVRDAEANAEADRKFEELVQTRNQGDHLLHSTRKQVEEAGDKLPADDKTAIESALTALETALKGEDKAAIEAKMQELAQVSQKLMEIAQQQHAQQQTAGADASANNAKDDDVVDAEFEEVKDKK

| SMILES | Kd [nM] |
| --- | --- |
| Nc1ncnc2c1ncn2[C@@H]1O[C@H](COP(=O)(O)OP(=O)(O)OP(=O)(O)O)[C@@H](O)[C@H]1O [ATP] | 10 |
| O=C(NCc1cccc2ccccc12)c1cccs1 [D5, N-(naphthalen-1-ylmethyl)thiophene-2-carboxamide] | 1700 |
| O=C(Nc1ccc2[nH]ccc2c1)c1cccs1 [D7, N-(1H-indol-5-yl)thiophene-2-carboxamide] | 12700 |
| O=C(NCc1cccc2ccsc12)c1cccs1 [D10, N-(benzo[b]thiophen-7-ylmethyl)thiophene-2-carboxamide] | 200 |
| O=C(NCc1ccc(Cl)c(Cl)c1)c1cccs1 [F6, N-(3,4-dichlorobenzyl)thiophene-2-carboxamide] | 7300 ± 6400 |
| O=C(NCc1c(Cl)cccc1Cl)c1cccs1 [F7, N-(2,6-dichlorobenzyl)thiophene-2-carboxamide] | 1500 |
| O=C(NCc1ccccc1O)c1cccs1 [F8, N-(2-hydroxybenzyl)thiophene-2-carboxamide] | 2300 |
| O=C(NCc1cc(Cl)cc(Cl)c1)c1cccs1 [F9, N-(3,5-dichlorobenzyl)thiophene-2-carboxamide] | 2800 |
| O=C(c1cccs1)N1CCN(CCO)CC1 [F10, (4-(2-hydroxyethyl)piperazin-1-yl)(thiophen-2-yl)methanone] | 16700 |

Each compound was assayed against β-domain of DnaK (SBD), residues 393–507 (Escherichia coli, UniProt P0A6Y8) (assay: isothermal titration calorimetry).
Assay type: binding

Chain of β-domain of DnaK (SBD), residues 393–507 (P0A6Y8 393-507): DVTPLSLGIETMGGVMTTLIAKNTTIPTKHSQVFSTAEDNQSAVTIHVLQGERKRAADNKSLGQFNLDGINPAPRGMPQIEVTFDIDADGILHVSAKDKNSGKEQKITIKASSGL

| SMILES | Kd [nM] |
| --- | --- |
| O=C(NCc1cccc2ccccc12)c1cccs1 [D5, N-(naphthalen-1-ylmethyl)thiophene-2-carboxamide] | 1000 |
| O=C(Nc1ccc2[nH]ccc2c1)c1cccs1 [D7, N-(1H-indol-5-yl)thiophene-2-carboxamide] | 4900 |
| O=C(Nc1ncc2ccccc2n1)c1cccs1 [D9, N-(quinazolin-2-yl)thiophene-2-carboxamide] | 1500 |
